Results on three compounds are retold here after US20030018025A1, “Certain 4-aminomethyl-2-substituted imidazole derivatives and 2-aminomethyl-4-substituted imidazole derivatives: new classes of dopamine receptor subtype specific ligands” (Neurogen Corporation, Corporation of the State of Delaware, priority 1995, published 2003).

In test [1] the target is T1, dopamine D4 receptors in rat hippocampus (Rattus norvegicus, UniProt P30729).
T1 construct: from tissue; host or cells: rat hippocampus
T1 sequence (P30729 1-387): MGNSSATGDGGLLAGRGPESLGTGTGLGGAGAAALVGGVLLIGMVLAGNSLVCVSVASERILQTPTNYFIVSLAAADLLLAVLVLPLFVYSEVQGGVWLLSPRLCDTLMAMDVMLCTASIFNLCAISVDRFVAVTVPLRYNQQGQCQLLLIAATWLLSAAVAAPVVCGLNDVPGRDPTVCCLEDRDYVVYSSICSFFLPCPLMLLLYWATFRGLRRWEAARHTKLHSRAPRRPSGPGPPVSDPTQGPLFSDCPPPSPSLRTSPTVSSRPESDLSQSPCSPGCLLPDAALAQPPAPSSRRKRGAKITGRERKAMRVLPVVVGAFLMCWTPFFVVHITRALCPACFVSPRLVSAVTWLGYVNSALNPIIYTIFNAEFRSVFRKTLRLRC
Nature of the test: Binding to D4 receptors in rat hippocampus.

The target of a further test is T2, Dopamine Receptor D3 (Homo sapiens, UniProt P35462).
T2 construct: expressed in transfected cells; host or cells: BHK 293 cells (so in the source)
T2 sequence (P35462 whole entry): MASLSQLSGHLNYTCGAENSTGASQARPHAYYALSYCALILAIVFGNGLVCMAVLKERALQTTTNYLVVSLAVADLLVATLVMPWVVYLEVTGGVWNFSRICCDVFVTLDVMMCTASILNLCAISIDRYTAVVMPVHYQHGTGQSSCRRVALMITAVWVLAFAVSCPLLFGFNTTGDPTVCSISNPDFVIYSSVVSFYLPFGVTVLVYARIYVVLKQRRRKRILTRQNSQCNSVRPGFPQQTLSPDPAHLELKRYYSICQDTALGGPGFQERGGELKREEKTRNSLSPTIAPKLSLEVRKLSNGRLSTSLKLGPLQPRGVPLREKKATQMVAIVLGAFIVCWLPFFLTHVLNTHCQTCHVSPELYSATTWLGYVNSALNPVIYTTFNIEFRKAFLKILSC
Nature of the test: D3 receptor binding activity (Example XXXIX). On the procedure: (§1) Striatial tissue is dissected from adult male Sprague Dawley rats or BHK 293 cells are harvested containing recombinantly produced D2 or D3 receptors. The sample is homogenized in 100 volumes (w/vol) of 0.05 M Tris HCl buffer at 4° C. and pH 7.4. The sample is then centrifuged at 30,000× g and resuspended and rehomogenized. The sample is then centrifuged as described and the final tissue sample is frozen until use. The tissue is resuspended 1:20 (wt/vol) in 0.05 M Tris HCl buffer containing 100 mM NaCl.
(§2) Incubations are carried out at […] and contain 0.5 ml of tissue sample, 0.5 nM ^3H-raclopride and the compound of interest in a total incubation volume of 1.0 ml.
(§3) The following compounds were assayed for D2, D3, and D4 receptor binding activity using the assays described above.

The next test relates to male Sprague Dawley rats. Nature of the test: Step-down passive avoidance task. The test is classed as in vivo, rat. On the procedure: Method Non-naive male Sprague Dawley rats (SASCO St Louis) weighing between […], were housed in groups of three in a temperature and humidity controlled vivarium having a 12 hour light/dark cycle. Animals had ad lib access to food and water.
Clozapine was dissolved in 50% PEG and administered in a dose range of from 0.25 to 2 mg/kg. Both drugs were administered intravenously 5 minutes prior to training in both learning tasks
A step-down passive avoidance platform 4 (cm)×7(cm) was placed in the center of an electrified gris floor, which was contained within a large (45×45×50 cm) white translucent plexiglas enclosure having a closable lid. The bars of the grip were spaced 1.5 cm apart and were wired to a BRS-LVE shock generator/scrambler which was set to deliver a 2 mA 6 second shock. Four passive avoidance boxes were automated by customer software (Labview) and commercial interface modules (National Instruments) connected to a computer The timing and delivery of the shock as well as the latency to steo down and the number of trials taken to reach criterion during training was under the control of the computer. […]
Testing was conduced approximately 24 hours after training, Drug-free animals were placed on the platform in the box in which they were trained and the latency to step down onto the unshocked floor was recorded for one trial. […]

Test [2] has as its target T3, human dopamine D4 receptor subtype (Homo sapiens, UniProt P21917).
T3 construct: expressed in transfected cells
T3 sequence (P21917 1-419): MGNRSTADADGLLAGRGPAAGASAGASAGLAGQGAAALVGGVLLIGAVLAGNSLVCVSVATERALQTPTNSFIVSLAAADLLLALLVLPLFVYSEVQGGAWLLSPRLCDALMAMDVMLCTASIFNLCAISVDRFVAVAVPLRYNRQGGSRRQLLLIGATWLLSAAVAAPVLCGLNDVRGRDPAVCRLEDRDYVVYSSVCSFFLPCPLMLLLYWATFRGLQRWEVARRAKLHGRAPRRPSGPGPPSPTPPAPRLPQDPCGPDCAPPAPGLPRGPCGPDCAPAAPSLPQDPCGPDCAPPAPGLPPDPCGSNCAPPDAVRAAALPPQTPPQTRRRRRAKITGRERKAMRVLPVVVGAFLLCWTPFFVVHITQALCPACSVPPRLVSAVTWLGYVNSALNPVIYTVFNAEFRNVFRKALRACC
Kind of test: D4 receptor binding, displacement of [3H]YM-09151-2. The note with it: Example XXXIX table. The method, then:
Assay for D4 Receptor Binding Activity
Clonal cell lines expressing the human dopamine D4 receptor subtype were harvested in PBS and the cells centrifuged and the pellets stored at −80° C. until used in the binding assay. The pellets were resuspended and the cells lysed at 4° C. in 50 mM Tris pH 7.4 buffer containing 120 mM NaCl, 1 mM EDTA and 5 mM MgCl2. The homogenate is centrifuged at 48000× g for 10 minutes at 4° C. The resulting pellet is resuspended in fresh buffer and centrifuged again. After resuspension of the pellet in fresh buffer at […] aliquot is removed for protein determination. The remaining homogenate is centrifuged as above, the supernatant removed and the pellet stored at 4° C. until needed at which time it is resuspended to a final concentration of […] with 50 mM Tris buffer (pH 7.4) and 120 mM NaCl just prior to use. Incubations were carried out for 60 minutes at 25° C. in the presence of 0.1 nM [^3H] YM-09151-2. The incubation was terminated by rapid filtration through Whatman GF/C filters and rinsed with 2×4 ml washes of chilled 50 mM Tris (pH 7.4) and 120 mM NaCl. Non-specific binding was determined with […] spiperone and radioactivity determined by coiunting in an LKB beta counter. Binding parameters were determined by non-linear least squares regression analysis, from which the inhibition constant (Ki) could be calculated for each test compound. The binding characteristics of some examples of this patent are shown in Table 2 for the dopamine D4 binding assay.
Background: Displacement assays read how much labelled ligand stays bound in the presence of the test substance.

Test [3] has as its target T4, dopamine D4 receptors in human hippocampus (Homo sapiens, UniProt P21917).
T4 construct: from tissue; host or cells: human hippocampus
T4 sequence (P21917 1-419): T3 sequence (P21917 1-419)
Nature of the test: Binding to D4 receptors in human hippocampus.

The next test deals with Dopamine Receptor D2 (Homo sapiens, UniProt P14416). Nature of the test: D2 receptor binding activity (Example XXXIX). On the procedure: as §1, §2, §3
Sequence of Dopamine Receptor D2 (P14416 whole entry): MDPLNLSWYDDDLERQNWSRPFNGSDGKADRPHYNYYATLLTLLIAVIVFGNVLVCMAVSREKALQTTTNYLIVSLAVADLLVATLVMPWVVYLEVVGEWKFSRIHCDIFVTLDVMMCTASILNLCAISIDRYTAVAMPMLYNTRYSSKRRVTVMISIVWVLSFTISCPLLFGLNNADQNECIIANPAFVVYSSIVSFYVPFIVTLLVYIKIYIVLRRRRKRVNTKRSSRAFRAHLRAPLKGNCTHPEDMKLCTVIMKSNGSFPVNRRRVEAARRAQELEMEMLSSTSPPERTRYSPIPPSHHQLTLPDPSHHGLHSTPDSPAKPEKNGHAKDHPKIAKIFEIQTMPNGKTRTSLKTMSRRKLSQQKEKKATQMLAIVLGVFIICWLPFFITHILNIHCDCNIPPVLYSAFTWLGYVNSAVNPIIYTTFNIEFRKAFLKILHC

Entries after “also recorded” stand apart in the source; their conditions may differ. Structures can show the parent of a compound that is named as a salt.

In general, Ki refers to a measure of affinity in units of concentration, obtained from inhibition or displacement. Low readings indicate a stronger hold on the target, high ones a looser hold on the target. As to `c1ccc(-c2ncc(CN3CCN(c4ncccn4)CC3)[nH]2)cc1` [Compound 23, 2-Phenyl-4(5)-[(4-(2-pyrimidinyl)-piperazin-1-yl)-methyl]-imidazole dihydrochloride], the “antagonist binding to D4 receptors in hippocampus” value (“antagonist binding to D4 receptors” for short) in test [1] and in test [3] was “antagonists binding to dopamine D4 receptors” throughout. Further, the Ki was determined as 8200 nM on Dopamine Receptor D3 and 2.7 nM in test [2]. Also, the “passive avoidance retention (time on platform at retest) vs vehicle” value with male Sprague Dawley rats (0.25 mg/kg i.v. 5 minutes prior to training, retest about 24 hours later, dihydrochloride, 0.25 mg/kg) is “significant improvement in memory; also recorded: significantly longer time”. For the same compound, the “passive avoidance acquisition vs vehicle” value with male Sprague Dawley rats (0.03-1.0 mg/kg i.v. 5 minutes prior to training) was “no significant differences for acquisition”.

For `c1ccc(-c2nc(CN3CCN(c4ccccn4)CC3)c[nH]2)cc1` [Compound 24, 2-Phenyl-4(5)-[(4-(2-pyridyl)-piperazin-1-yl)-methyl]-imidazole dihydrochloride], the “antagonist binding to D4 receptors” value in test [1] and in test [3] was “antagonists binding to dopamine D4 receptors” each time. The inhibition constant (Ki) at Dopamine Receptor D2 stood at 1030 nM; in test [2], 0.85 nM.

`c1ccc(-c2ncc(CN3CCN(c4ccccc4)CC3)[nH]2)cc1` [Compound 45, 2-Phenyl-4(5)-[(4-phenyl-piperazin-1-yl)methyl]imidazole]: the “antagonist binding to D4 receptors” value in test [1] and in test [3] was “antagonists binding to dopamine D4 receptors” in each case. Besides, the Ki at Dopamine Receptor D3 stood at 169 nM; on Dopamine Receptor D2, 239 nM; in test [2], 5 nM.
